Consider nine compounds from US5126291A, “Sulfur inhibitors of phospholipase A-Z” (American Cyanamid Company, priority 1990, dated 1992).

Structures can show the parent of a compound that is named as a salt. Where two headings read alike, the source gives them in different places.

One assay addresses T1, porcine pancreatic PLA2 (Sus scrofa, UniProt P00592).
T1 construct: purchased Sigma
In words: Inhibition of porcine pancreatic phospholipase A2 (PLA2), radiochemical assay. To be noted: for inhibition at 10 µg/mL / Percent Inhibition at 10 ug/ml: 10 ug/ml inhibitor; for inhibition at 10 µg/mL: read-out: Percent Inhibition at 10 ug/ml. The class given is biochemical. The protocol: 4-((3-(Dimethylamino)propyl)thio)-1-(hexadecyloxy)-2-butanol, acetate was prepared by the method of Example 64 as a 1 mg/ml solution in methanol. Inhibition of phospholipase A2 activity was measured by a radiochemical assay in which labeled synthetic phosphatidylcholine substrate is converted by porcine pancreatic PLA2 to free radiolabeled arachidonate and lyso phosphatidyl choline. In the assay, radiolabeled arachidonate is extracted from the reaction mixture and separated from unreacted substrate by column or thin layer chromatography. The radioactivity (cpm) in samples is quantified in liquids scintillation counting.
[…] The combined substrate was then redissolved in 0.1M Tris-HCl buffer, pH 9.0, containing 10 mM calcium chloride and 10 mM sodium taurocholate detergent. The mixture was sonicated for 10 to 30 seconds in a Kontes Sonifier to yield a homogeneous dispersion. The "mixed" micellar substrate was clear. An aliquot was reserved for a cpm count (total substrate). The total reaction volume was 500 ul; siliconized glassware or plasticware was used throughout. Porcine pancreatic phospholipase A2 enzyme (Sigma, sp. act. […] U/mg protein and preferably 900 U/mg protein) was diluted 1:750 or 1:1000 in 0.1M Tris-HCl buffer, pH 9.0 (without Ca^++ and detergent).
The test compound was diluted appropriately in phosphate buffered saline. 10 ul aliquots of the stock solution were either incubated with enzyme in buffer in the absence of Ca^++ detergent or were blown under N2 stream with the substrate prior to the addition of buffer. The substrate and buffer were kept on ice until the reaction was started by the addition of enzyme (preincubated with test compound or diluent, or fresh enzyme) to the substrate dispersion in buffer.
Samples (600 ul) were extracted with 3 ml of CHC13 /MeOH solution (2:1) for thin layer chromatography. The phases were separated by gentle centrifugation at 700 rpm for 5 minutes. The organic phase was recovered for either thin layer or column chromatography separation.
For thin layer chromatography, labeled arachidonate extracted with CHC13 /MeOH solution was separated on Silica Gel G TLC plates (Analtech). Twenty ul of a 2 mg/ml internal standard solution of arachidonic acid (Sigma) was combined with 2 to 3 ml of the organic phase. The entire mixture was dried under nitrogen and redissolved in 50 ul of CHC13 /MeOH solution (2:1). A 20 ul sample was counted in 10 ml of Beckman Redi-solv Scintillation fluid HP and spotted in Silica Gel G plates. The solvent system used to develop the plate was a CHC13 /MeOH/13.5N NH3 /H2 O solution (70:30:4:1). Thin layer chromatography plates were developed in a glass chamber for 1 to 11/2 hours, air dried, and the spots visualized in an iodine vapor chamber. Standards of phosphatidyl/choline, lyso phosphatidyl choline, and arachidonic acid (Sigma) were made up as 2 mg/ml stocks in CHC13 /MeOH solution (2:1) and were spotted on the thin layer chromatography plates. Spots corresponding to arachidonate and phospholipid were scraped and counted in 10 ml Beckman Redi-Solv HP scintillation fluid.
For column chromatography, samples were extracted with hexane/diether solution and the upper organic phase recovered. An aliquot was applied to a Silicar CC4 (Maleinckrodt) column. Columns were prepared using 1 ml of 1:1 slurry of Silicar CC4 (Maleinckrodt) in hexane/ether solution in a Pasteur pipet (approximately 2 cm height). Columns were rinsed with 500 ul of hexane/ether solution before adding the sample (300-600 ul) to the columns. Columns were eluted with a total of 6 ml of hexane/ether solution. The 6 ml sample was counted in 10 ml of Beckman Redi-Solv HP scintillation fluid. Thin layer chromatography analysis confirmed that the radioactivity eluted was arachidonate.
3-((3-(Acetyloxy)-4-(hexadecyloxy)-butyl)-thio)-N,N,N-trimethyl-1-propanaminium, iodide was prepared by the method of Example 65 as a 1 mg/ml solution in methanol. […]

In assay [1] the test system is spontaneously hypertensive rats. Description: Hypotensive activity: mean arterial blood pressure in conscious cannulated spontaneously hypertensive rats, intravenous. In kind it is in vivo. Particulars: for Peak Mean Arterial Blood Pressure: spontaneously hypertensive rats, intravenous.
Source text: Under ether anesthesia, Weeks type cannulas (Peterson Technics) were surgically implanted in the abdominal aorta and vena cave of spontaneously hypertensive rats (Taconic Farms, Germantown, NY) and passed subcutaneously to the back of the neck where they were exteriorized. The cannulas were filled with saline, plugged and the rats returned to single cages where they were allowed food and water ad libitum.
At least three days following implantation of the cannulas, the rats were weighed and placed in Broome style restraining cages. The plug was removed from the aortic catheter which was connected to an arterial pressure transducer (Statham P23ID) using PE 100 polyethylene tubing and a stepdown connector fabricated from stainless steel hypodermic tubing. Mean arterial blood pressure was obtained by electrical damping of the pulse pressure channel. Heart rate was obtained from a tachograph triggered by the pulse pressure channel. All parameters were monitored on a Grass physiological recorder (Model 7).
The plug was removed from the vena cava catheter and a PE 20 polyethylene tubing extension was added using a piece of stainless steel hypodermic tubing. The other end was terminated with a 27 G needle and one ml syringe.
All drugs were dissolved in saline or a mixture of ethanol and saline (25:75V:V) such that the volume injected intravenously was 0.1 ml/100 g body weight. All drugs were flushed in with 0.2 ml saline. Blood pressure was continually monitored both before and after introduction of the test compound.
Setting [2] is: 1000 uM substrate concentration.

T1 sequence (P00592 23-146): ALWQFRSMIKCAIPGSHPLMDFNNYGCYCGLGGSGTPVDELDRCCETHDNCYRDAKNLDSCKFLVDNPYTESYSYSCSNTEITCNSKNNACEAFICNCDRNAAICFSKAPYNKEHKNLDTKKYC

By IC50 is commonly meant the concentration at which inhibition is half-maximal. Read a low IC50 as inhibition by little substance. For `CCCCCCCCCCCCCCCCOCC(CCSCCC[N+](C)(C)C)OC(C)=O` (stereo not shown) [Example 68, 3-((3-(Acetyloxy)-4-(hexadecyloxy)-butyl)-thio)-N,N,N-trimethyl-1-propanaminium, iodide], the IC50 against porcine pancreatic PLA2 (2 nM substrate concentration) is 2.52 µM; against porcine pancreatic PLA2 (10 uM substrate concentration), 10.1 µM; against porcine pancreatic PLA2 (100 uM substrate concentration), 20 µM; on porcine pancreatic PLA2 (500 uM substrate concentration) it was 96.8 µM; against porcine pancreatic PLA2 (setting [2]), 137 µM. The inhibition at 10 µg/mL turned out to be 96.6 ± 4.6% on porcine pancreatic PLA2 (2 nM substrate concentration); 63.2 ± 13.5% at porcine pancreatic PLA2 (10 uM substrate concentration); 45 ± 13.6% on porcine pancreatic PLA2 (100 uM substrate concentration); 15.4 ± 5.7% on porcine pancreatic PLA2 (500 uM substrate concentration); 8.2 ± 4.6% on porcine pancreatic PLA2 (setting [2]).

For the compound `CCCCCCCCCCCCCCCCOCC(COP(=O)([O-])Oc1cccc(C[N+](C)(C)C)c1)OC(C)=O` (stereo not shown) [3-(((2-(Acetyloxy)-3-(hexadecyloxy)propoxy)hydroxyphosphinyl)oxy)-N,N,N-trimethylbenzenemethanaminium, hydroxide inner salt], the “Peak Mean Arterial Blood Pressure” value is listed as -10.4 mm,Hg in assay [1] (dose 0.1 ug/kg); -16.3 mm,Hg in assay [1] (dose 0.3 ug/kg); -37.2 mm,Hg in assay [1] (dose 1.0 ug/kg); -83.9 mm,Hg in assay [1] (dose 3.0 ug/kg); -91.0 mm,Hg in assay [1] (dose 10.0 ug/kg).

Turning to `CCCCCCCCCCCCCCCCOCC(COP(=O)([O-])OCC(c1ccccc1)[N+](C)(C)C)OC(C)=O` (stereo not shown) [7-(Acetyloxy)-4-hydroxy-N,N,N-trimethyl-1-phenyl-3,5,9-trioxa-4-phosphapentacosan-1-aminium, 4-oxide hydroxide inner salt], the “Peak Mean Arterial Blood Pressure” value in assay [1] (dose 10.0 ug/kg) is reported as -59.0 mm,Hg.

On to `CCCCCCCCCCCCCCCCOCC(CCS(=O)(=O)CCC[N+](C)(C)C)OC(C)=O.[Cl-]` (stereo not shown) [3-((3-(Acetyloxy)-4-(hexadecyloxy)butyl)sulfonyl)-N,N,N-trimethyl-1-propanaminium chloride], for which the “reduced the blood pressure in the spontaneously hypertensive rat” value in assay [1] (dose of 10 mg/kg (iv), value is a reduction) was determined as 20 mm Hg.

“3-((3-(Acetyloxy)-4-(hexadecyloxy)-butyl)-thio)-N,N,N-trimethyl-1-propanaminium, chloride [Example 69]”: the Ic50 amounted to 2.8 µg/mL at porcine pancreatic PLA2 (2 nM substrate concentration), 11.52 ± 10.58 µg/mL at porcine pancreatic PLA2 (10 uM substrate concentration) and 45.56 ± 23.60 µg/mL on porcine pancreatic PLA2 (100 uM substrate concentration). Besides, the “Percent Inhibition at 10 ug/ml” value at porcine pancreatic PLA2 (2 nM substrate concentration) was found to be 77%; at porcine pancreatic PLA2 (10 uM substrate concentration) it was 55.3 ± 16.5%; at porcine pancreatic PLA2 (100 uM substrate concentration) it was 23%.

Turning to `CCCCCCCCCCCCCCCCOCC(CCSCCCN(C)C)OC(C)=O` (stereo not shown) [Example 67, 4-((3-(Dimethylamino)propyl)thio)-1-(hexadecyloxy)-2-butanol, acetate], the concentration for half-maximal inhibition (IC50) against porcine pancreatic PLA2 (2 nM substrate concentration) is 18.6 µM; on porcine pancreatic PLA2 (10 uM substrate concentration), 45.7 µM; against porcine pancreatic PLA2 (100 uM substrate concentration), 96.7 µM; against porcine pancreatic PLA2 (500 uM substrate concentration), 226 µM. Also, the values for the inhibition at 10 µg/mL on porcine pancreatic PLA2 (2 nM substrate concentration) and on porcine pancreatic PLA2 (10 uM substrate concentration) were 54% and 33 ± 12.7%, respectively.

`CCCCCCCCCCCCCCc1cccc(OCC(COP(=O)([O-])OCC(C)[N+](C)(C)C)OC(C)=O)c1` (stereo not shown) [7-Hydroxy-N,N,N-trimethyl-2-oxo-4-((3-tetradecylphenoxy)methyl)3,6,8-trioxa-7-phosphaundecan-10-aminium, 7-oxide, hydroxide, inner salt]: the “Peak Mean Arterial Blood Pressure” value in assay [1] (dose 0.03 ug/kg) is -9.8 mm,Hg; in assay [1] (dose 0.1 ug/kg), -17.6 mm,Hg; in assay [1] (dose 0.3 ug/kg) it was -78.7 mm,Hg; in assay [1] (dose 1.0 ug/kg), -95.9 mm,Hg.

For `CCCCCCCCCCCCCCCCOCC(COP(=O)([O-])OCC(C)[N+](C)(C)C)OC(C)=O` (stereo not shown) [8-(Acetyloxy)-5-hydroxy-N,N-N-trimethyl-4,6,10-trioxa-5-phosphahexacosan-2-aminium, 5-oxide, hydroxide, inner salt], the “Peak Mean Arterial Blood Pressure” value was -16.4 mm,Hg in assay [1] (dose 0.03 ug/kg); -36.3 mm,Hg in assay [1] (dose 0.1 ug/kg); -58.6 mm,Hg in assay [1] (dose 0.3 ug/kg); -103.1 mm,Hg in assay [1] (dose 1.0 ug/kg); -118.3 mm,Hg in assay [1] (dose 3.0 ug/kg).

For the compound `CCCCCCCCCCCCCCCCOCC(COP(=O)([O-])OC(C)C[N+](C)(C)C)OC(C)=O` (stereo not shown) [7-(Acetyloxy)-4-hydroxy-N,N,N,2-tetramethyl-3,5,9-trioxa-4-phosphapentacosan-1-aminium, 4-oxide, hydroxide, inner salt], the “Peak Mean Arterial Blood Pressure” value in assay [1] (dose 0.3 ug/kg) was -17.4 mm,Hg; in assay [1] (dose 1.0 ug/kg), -40.2 mm,Hg; in assay [1] (dose 3.0 ug/kg), -88.8 mm,Hg; in assay [1] (dose 10.0 ug/kg), -96.5 mm,Hg; in assay [1] (dose 30.0 ug/kg), -103.4 mm,Hg.
